Measurements as given in patent US9981959B2, “Thiazolyl and oxazolyl urea, thiourea, guanidine and cyanoguanidine compounds as TrkA kinase inhibitors” (Array BioPharma Inc., priority 2012, dated 2018).

Columns and labels:
Test in all cases: KinaseProfiler off-target kinase profiling
Type in all cases: biochemical
Settings in all cases: 10 μM, ATP near Km
[1] = biological target: T1, AURKA (Homo sapiens, UniProt O14965)
T1 construct: purchased Millipore (KinaseProfiler service)
How it was run: (§1)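 Percent of control (POC) is reported as the mean of duplicate wells, with compound at 10 μM and ATP set near the Km of each kinase.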

[2] = biological target: T2, Abl2 (Homo sapiens, UniProt P42684)
T2 construct: purchased Millipore (KinaseProfiler service)
How it was run: as §1

[3] = biological target: T3, Axl (Homo sapiens, UniProt P30530)
T3 construct: purchased Millipore (KinaseProfiler service)
T3 sequence (P30530 26-894): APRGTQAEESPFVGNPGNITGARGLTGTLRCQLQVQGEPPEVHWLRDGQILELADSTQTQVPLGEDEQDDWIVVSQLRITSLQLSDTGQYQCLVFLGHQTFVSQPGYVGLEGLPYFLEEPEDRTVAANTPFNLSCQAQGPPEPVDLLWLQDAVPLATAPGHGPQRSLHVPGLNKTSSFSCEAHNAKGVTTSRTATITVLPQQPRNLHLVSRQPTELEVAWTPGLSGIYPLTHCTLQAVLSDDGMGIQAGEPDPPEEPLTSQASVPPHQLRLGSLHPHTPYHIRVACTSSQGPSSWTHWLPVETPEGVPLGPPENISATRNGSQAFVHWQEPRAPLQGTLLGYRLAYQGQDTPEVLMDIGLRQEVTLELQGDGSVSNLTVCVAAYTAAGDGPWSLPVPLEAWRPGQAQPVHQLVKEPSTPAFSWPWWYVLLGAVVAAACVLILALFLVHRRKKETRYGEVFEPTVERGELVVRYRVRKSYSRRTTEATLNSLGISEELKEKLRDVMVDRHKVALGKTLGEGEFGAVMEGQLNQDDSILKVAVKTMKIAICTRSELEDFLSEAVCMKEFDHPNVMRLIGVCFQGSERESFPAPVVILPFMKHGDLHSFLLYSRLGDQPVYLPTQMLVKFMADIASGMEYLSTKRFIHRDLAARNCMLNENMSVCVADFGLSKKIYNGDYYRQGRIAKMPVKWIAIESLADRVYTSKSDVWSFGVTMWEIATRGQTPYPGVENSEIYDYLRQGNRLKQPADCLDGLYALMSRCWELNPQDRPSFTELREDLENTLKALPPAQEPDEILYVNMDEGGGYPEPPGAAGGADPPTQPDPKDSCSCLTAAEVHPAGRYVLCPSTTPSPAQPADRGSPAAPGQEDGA
How it was run: as §1

[4] = biological target: T4, CDK2/cyclinA (Homo sapiens, UniProt P24941)
T4 construct: purchased Millipore (KinaseProfiler service)
How it was run: as §1

[5] = biological target: T5, CDK5/p35 (Homo sapiens, UniProt Q00535)
T5 construct: purchased Millipore, Inc. (KinaseProfiler service)
How it was run: as §1

[6] = biological target: T6, CDK6/cyclinD3 (Homo sapiens, UniProt Q00534)
T6 construct: purchased Millipore, Inc. (KinaseProfiler service)
How it was run: as §1

[7] = biological target: T7, CK1gamma1 (Homo sapiens, UniProt Q9HCP0)
T7 construct: purchased Millipore, Inc. (KinaseProfiler service)
How it was run: as §1

[8] = biological target: T8, DCAMKL2 (Homo sapiens, UniProt Q8N568)
T8 construct: purchased Millipore, Inc. (KinaseProfiler service)
How it was run: as §1

[9] = biological target: T9, DDR2 (Homo sapiens, UniProt Q16832)
T9 construct: purchased Millipore, Inc. (KinaseProfiler service)
How it was run: as §1

[10] = biological target: T10, EGFR (Homo sapiens, UniProt P00533)
T10 construct: purchased Millipore, Inc. (KinaseProfiler service)
How it was run: as §1

[11] = biological target: T11, FGFR4 (Homo sapiens, UniProt P22455)
T11 construct: purchased Millipore, Inc. (KinaseProfiler service)
How it was run: as §1

[12] = biological target: T12, GRK7 (Homo sapiens, UniProt Q8WTQ7)
T12 construct: purchased Millipore, Inc. (KinaseProfiler service)
T12 sequence (Q8WTQ7 whole entry): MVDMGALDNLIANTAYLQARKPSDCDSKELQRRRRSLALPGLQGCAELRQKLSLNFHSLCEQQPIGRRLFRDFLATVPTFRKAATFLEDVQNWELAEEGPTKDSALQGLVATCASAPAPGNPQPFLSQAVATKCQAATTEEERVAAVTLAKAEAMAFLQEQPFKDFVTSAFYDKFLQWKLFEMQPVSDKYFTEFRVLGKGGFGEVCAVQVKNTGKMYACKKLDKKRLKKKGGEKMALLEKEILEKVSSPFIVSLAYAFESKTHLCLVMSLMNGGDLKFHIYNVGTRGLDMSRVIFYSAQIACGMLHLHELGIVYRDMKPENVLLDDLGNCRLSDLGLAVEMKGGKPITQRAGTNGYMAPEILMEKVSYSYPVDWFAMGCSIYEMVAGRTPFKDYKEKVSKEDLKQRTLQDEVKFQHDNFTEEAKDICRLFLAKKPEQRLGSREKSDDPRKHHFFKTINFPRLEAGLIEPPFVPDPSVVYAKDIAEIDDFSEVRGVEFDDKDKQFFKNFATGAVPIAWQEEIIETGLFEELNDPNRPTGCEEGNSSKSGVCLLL
How it was run: as §1

[13] = biological target: T13, GSK3alpha (Homo sapiens, UniProt P49840)
T13 construct: purchased Millipore, Inc. (KinaseProfiler service)
T13 sequence (P49840 whole entry): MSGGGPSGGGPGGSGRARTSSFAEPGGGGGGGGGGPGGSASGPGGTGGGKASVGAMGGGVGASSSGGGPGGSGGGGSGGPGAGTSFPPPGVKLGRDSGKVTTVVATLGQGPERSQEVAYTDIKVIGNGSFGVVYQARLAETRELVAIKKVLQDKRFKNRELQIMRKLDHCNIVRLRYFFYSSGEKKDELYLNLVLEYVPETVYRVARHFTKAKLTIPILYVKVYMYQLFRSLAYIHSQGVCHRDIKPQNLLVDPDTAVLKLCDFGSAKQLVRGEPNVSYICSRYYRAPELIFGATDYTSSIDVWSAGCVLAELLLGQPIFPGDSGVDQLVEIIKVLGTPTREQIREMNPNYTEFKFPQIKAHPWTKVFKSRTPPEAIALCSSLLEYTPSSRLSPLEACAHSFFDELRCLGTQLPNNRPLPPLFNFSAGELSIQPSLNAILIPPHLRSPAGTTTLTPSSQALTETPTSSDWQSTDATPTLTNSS
How it was run: as §1

[14] = biological target: T14, GSK3beta (Homo sapiens, UniProt P49841)
T14 construct: purchased Millipore, Inc. (KinaseProfiler service)
T14 sequence (P49841 whole entry): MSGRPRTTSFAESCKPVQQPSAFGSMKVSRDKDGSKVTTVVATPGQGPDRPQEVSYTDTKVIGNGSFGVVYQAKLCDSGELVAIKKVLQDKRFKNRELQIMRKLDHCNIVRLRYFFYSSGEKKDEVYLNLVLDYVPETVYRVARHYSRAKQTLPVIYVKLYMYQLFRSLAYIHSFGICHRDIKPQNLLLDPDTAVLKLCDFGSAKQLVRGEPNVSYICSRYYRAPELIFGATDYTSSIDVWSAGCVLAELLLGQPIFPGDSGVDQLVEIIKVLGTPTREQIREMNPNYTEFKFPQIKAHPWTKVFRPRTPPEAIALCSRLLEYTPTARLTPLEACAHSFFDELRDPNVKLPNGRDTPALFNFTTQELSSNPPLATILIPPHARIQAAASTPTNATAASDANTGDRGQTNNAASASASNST
How it was run: as §1

[15] = biological target: T15, HIPK2 (Homo sapiens, UniProt Q9H2X6)
T15 construct: purchased Millipore, Inc. (KinaseProfiler service)
How it was run: as §1

[16] = biological target: T16, HIPK3 (Homo sapiens, UniProt Q9H422)
T16 construct: purchased Millipore, Inc. (KinaseProfiler service)
T16 sequence (Q9H422 whole entry): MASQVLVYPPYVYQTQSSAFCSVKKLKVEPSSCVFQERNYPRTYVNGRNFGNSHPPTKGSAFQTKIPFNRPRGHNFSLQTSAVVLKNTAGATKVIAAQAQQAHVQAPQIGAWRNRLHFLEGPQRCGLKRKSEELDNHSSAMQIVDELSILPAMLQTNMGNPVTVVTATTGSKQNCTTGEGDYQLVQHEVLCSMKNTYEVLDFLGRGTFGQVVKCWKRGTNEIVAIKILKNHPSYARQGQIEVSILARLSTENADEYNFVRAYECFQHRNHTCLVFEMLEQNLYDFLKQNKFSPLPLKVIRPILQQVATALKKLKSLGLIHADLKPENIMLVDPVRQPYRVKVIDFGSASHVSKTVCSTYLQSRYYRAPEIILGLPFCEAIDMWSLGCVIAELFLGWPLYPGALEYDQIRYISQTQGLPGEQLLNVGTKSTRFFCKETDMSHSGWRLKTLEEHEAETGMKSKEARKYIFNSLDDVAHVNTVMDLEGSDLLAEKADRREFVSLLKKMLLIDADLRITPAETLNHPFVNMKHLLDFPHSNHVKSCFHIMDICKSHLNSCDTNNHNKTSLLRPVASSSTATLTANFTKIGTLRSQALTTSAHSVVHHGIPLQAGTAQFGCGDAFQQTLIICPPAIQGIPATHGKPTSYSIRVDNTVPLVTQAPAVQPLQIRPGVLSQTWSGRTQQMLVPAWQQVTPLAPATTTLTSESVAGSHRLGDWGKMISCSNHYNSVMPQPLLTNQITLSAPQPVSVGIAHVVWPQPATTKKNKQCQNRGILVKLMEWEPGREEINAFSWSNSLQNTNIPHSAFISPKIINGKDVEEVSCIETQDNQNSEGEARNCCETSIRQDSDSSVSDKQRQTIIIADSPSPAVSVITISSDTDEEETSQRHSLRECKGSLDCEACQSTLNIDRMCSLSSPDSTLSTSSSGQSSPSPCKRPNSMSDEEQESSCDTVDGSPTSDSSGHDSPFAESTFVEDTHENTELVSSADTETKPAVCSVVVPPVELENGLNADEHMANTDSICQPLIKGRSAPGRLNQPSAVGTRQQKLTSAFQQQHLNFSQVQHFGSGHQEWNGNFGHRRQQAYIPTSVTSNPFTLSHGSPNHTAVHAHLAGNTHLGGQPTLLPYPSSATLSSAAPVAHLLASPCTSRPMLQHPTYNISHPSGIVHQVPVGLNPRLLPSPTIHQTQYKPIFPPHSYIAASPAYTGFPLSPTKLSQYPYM
How it was run: as §1

[17] = biological target: T17, IR Activated (Homo sapiens, UniProt P06213)
T17 construct: purchased Millipore, Inc. (KinaseProfiler service)
How it was run: as §1

[18] = biological target: T18, LOK (Homo sapiens, UniProt O94804)
T18 construct: purchased Millipore, Inc. (KinaseProfiler service)
How it was run: as §1

[19] = biological target: T19, MAPKAP-K5 (Homo sapiens, UniProt Q8IW41)
T19 construct: purchased Millipore, Inc. (KinaseProfiler service)
How it was run: as §1

[20] = biological target: T20, MEK1 (Homo sapiens, UniProt Q02750)
T20 construct: purchased Millipore, Inc. (KinaseProfiler service)
T20 sequence (Q02750 whole entry): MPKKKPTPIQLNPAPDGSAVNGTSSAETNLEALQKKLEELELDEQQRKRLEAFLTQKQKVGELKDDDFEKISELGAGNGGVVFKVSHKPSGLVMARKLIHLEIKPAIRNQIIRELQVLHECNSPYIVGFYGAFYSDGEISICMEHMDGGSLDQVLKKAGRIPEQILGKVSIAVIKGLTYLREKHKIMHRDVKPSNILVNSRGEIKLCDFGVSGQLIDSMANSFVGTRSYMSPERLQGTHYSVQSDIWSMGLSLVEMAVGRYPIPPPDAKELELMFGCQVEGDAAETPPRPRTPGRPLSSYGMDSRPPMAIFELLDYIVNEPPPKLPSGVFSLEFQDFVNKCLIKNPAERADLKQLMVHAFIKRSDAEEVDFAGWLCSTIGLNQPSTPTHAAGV
How it was run: as §1

[21] = biological target: T21, MKNK2 (Homo sapiens, UniProt Q9HBH9)
T21 construct: purchased Millipore, Inc. (KinaseProfiler service)
How it was run: as §1

[22] = biological target: T22, MLK1 (Homo sapiens, UniProt P80192)
T22 construct: purchased Millipore, Inc. (KinaseProfiler service)
How it was run: as §1

[23] = biological target: T23, MRCKbeta (Homo sapiens, UniProt Q9Y5S2)
T23 construct: purchased Millipore, Inc. (KinaseProfiler service)
How it was run: as §1

[24] = biological target: T24, MSK1 (Homo sapiens, UniProt O75582)
T24 construct: purchased Millipore, Inc. (KinaseProfiler service)
How it was run: as §1

[25] = biological target: T25, NEK11 (Homo sapiens, UniProt Q8NG66)
T25 construct: purchased Millipore, Inc. (KinaseProfiler service)
How it was run: as §1

[26] = biological target: T26, NEK3 (Homo sapiens, UniProt P51956)
T26 construct: purchased Millipore, Inc. (KinaseProfiler service)
How it was run: as §1

[27] = biological target: T27, PAK2 (Homo sapiens, UniProt Q13177)
T27 construct: purchased Millipore, Inc. (KinaseProfiler service)
How it was run: as §1

[28] = biological target: T28, PDGFRalpha (Homo sapiens, UniProt P16234)
T28 construct: purchased Millipore, Inc. (KinaseProfiler service)
How it was run: as §1

[29] = biological target: T29, PDK1 (Homo sapiens, UniProt O15530)
T29 construct: purchased Millipore, Inc. (KinaseProfiler service)
How it was run: as §1

[30] = biological target: T30, PKAC-alpha (Homo sapiens, UniProt P17612)
T30 construct: purchased Millipore, Inc. (KinaseProfiler service)
How it was run: as §1

[31] = biological target: T31, PKCtheta (Homo sapiens, UniProt Q04759)
T31 construct: purchased Millipore, Inc. (KinaseProfiler service)
How it was run: as §1

[32] = biological target: T32, PKCzeta (Homo sapiens, UniProt Q05513)
T32 construct: purchased Millipore, Inc. (KinaseProfiler service)
How it was run: as §1

[33] = biological target: T33, PhKgamma2 (Homo sapiens, UniProt P15735)
T33 construct: purchased Millipore, Inc. (KinaseProfiler service)
How it was run: as §1

[34] = biological target: T34, Pim-2 (Homo sapiens, UniProt Q9P1W9)
T34 construct: purchased Millipore, Inc. (KinaseProfiler service)
T34 sequence (Q9P1W9 whole entry): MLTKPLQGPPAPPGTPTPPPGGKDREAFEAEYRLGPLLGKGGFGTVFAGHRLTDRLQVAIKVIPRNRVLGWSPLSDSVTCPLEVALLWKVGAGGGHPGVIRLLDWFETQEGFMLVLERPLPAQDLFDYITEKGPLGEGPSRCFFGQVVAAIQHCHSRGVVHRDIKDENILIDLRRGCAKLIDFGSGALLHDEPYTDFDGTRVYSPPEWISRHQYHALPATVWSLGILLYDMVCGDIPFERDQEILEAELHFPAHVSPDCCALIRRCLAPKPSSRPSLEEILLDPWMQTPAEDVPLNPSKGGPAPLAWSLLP
How it was run: as §1

[35] = biological target: T35, Plk2 (Homo sapiens, UniProt Q9NYY3)
T35 construct: purchased Millipore, Inc. (KinaseProfiler service)
How it was run: as §1

[36] = biological target: T36, PrKX (Homo sapiens, UniProt P51817)
T36 construct: purchased Millipore, Inc. (KinaseProfiler service)
How it was run: as §1

[37] = biological target: T37, Ros (Homo sapiens, UniProt P08922)
T37 construct: purchased Millipore, Inc. (KinaseProfiler service)
How it was run: as §1

[38] = biological target: T38, TAK1 (Homo sapiens, UniProt O43318)
T38 construct: purchased Millipore, Inc. (KinaseProfiler service)
T38 sequence (O43318 1-303 limits assumed): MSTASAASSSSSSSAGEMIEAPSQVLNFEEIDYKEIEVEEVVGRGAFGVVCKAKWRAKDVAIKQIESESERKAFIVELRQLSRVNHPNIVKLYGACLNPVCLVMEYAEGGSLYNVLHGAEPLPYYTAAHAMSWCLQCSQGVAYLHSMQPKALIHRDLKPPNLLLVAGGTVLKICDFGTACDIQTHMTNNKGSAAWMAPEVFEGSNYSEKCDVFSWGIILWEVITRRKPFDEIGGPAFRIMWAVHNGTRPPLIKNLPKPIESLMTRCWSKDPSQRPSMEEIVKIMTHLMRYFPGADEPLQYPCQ
How it was run: as §1

[39] = biological target: T39, TEC Activated (Homo sapiens, UniProt P42680)
T39 construct: purchased Millipore, Inc. (KinaseProfiler service)
How it was run: as §1

[40] = biological target: T40, TNK2 (Homo sapiens, UniProt Q07912)
T40 construct: purchased Millipore, Inc. (KinaseProfiler service)
How it was run: as §1

[41] = biological target: T41, TrkB (Homo sapiens, UniProt Q16620)
T41 construct: purchased Millipore, Inc. (KinaseProfiler service)
How it was run: as §1

T1 sequence (O14965 whole entry): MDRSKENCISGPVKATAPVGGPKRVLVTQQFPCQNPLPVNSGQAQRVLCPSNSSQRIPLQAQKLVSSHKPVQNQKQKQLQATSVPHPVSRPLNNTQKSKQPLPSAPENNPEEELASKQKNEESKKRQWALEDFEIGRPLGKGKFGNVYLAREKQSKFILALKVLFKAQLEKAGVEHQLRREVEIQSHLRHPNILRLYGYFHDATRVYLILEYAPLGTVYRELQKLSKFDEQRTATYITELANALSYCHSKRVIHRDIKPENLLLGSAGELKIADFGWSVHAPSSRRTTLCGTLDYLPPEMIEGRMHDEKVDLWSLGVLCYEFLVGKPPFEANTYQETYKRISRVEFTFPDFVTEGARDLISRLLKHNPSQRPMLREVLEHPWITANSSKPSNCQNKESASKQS

Cc1c(-c2cnn(C)c2)nn(-c2ccccc2)c1NC(=O)Nc1sc(C(F)(F)F)nc1-c1ccccc1 [Example 2, 1-(1′,4-dimethyl-1-phenyl-1H,1′H-[3,4′-bipyrazol]-5-yl)-3-(4-phenyl-2-(trifluoromethyl)thiazol-5-yl)urea]
Avg POC [1]: 116 POC
Avg POC [2]: 136 POC
Avg POC [3]: 122.5 POC
Avg POC [4]: 122 POC
Avg POC [5]: 111 POC
Avg POC [6]: 119.5 POC
Avg POC [7]: 104 POC
Avg POC [8]: 210.5 POC
Avg POC [9]: 98 POC
Avg POC [10]: 111 POC
Avg POC [11]: 141.5 POC
Avg POC [12]: 112 POC
Avg POC [13]: 147.5 POC
Avg POC [14]: 127.5 POC
Avg POC [15]: 98.5 POC
Avg POC [16]: 105.5 POC
Avg POC [17]: 113.5 POC
Avg POC [18]: 110.5 POC
Avg POC [19]: 95.5 POC
Avg POC [20]: 103.5 POC
Avg POC [21]: 95 POC
Avg POC [22]: 95.5 POC
Avg POC [23]: 113 POC
Avg POC [24]: 151 POC
Avg POC [25]: 73.5 POC
Avg POC [26]: 108.5 POC
Avg POC [27]: 98.5 POC
Avg POC [28]: 102.5 POC
Avg POC [29]: 115 POC
Avg POC [30]: 134 POC
Avg POC [31]: 130 POC
Avg POC [32]: 108 POC
Avg POC [33]: 108 POC
Avg POC [34]: 142.5 POC
Avg POC [35]: 99 POC
Avg POC [36]: 122 POC
Avg POC [37]: 96.5 POC
Avg POC [38]: 95.5 POC
Avg POC [39]: 131 POC
Avg POC [40]: 142.5 POC
Avg POC [41]: 3 POC
